Reference: US12570957B2, “Isolated naive pluripotent stem cells and methods of generating same” (Yeda Research and Development Co. Ltd., priority 2013, dated 2026)

Tests used:
[1] = target: T1, PKCμ (Homo sapiens, UniProt Q15139); conditions: read-out: IC50 for PKCp; cited from earlier work
T1 sequence (Q15139 1-912): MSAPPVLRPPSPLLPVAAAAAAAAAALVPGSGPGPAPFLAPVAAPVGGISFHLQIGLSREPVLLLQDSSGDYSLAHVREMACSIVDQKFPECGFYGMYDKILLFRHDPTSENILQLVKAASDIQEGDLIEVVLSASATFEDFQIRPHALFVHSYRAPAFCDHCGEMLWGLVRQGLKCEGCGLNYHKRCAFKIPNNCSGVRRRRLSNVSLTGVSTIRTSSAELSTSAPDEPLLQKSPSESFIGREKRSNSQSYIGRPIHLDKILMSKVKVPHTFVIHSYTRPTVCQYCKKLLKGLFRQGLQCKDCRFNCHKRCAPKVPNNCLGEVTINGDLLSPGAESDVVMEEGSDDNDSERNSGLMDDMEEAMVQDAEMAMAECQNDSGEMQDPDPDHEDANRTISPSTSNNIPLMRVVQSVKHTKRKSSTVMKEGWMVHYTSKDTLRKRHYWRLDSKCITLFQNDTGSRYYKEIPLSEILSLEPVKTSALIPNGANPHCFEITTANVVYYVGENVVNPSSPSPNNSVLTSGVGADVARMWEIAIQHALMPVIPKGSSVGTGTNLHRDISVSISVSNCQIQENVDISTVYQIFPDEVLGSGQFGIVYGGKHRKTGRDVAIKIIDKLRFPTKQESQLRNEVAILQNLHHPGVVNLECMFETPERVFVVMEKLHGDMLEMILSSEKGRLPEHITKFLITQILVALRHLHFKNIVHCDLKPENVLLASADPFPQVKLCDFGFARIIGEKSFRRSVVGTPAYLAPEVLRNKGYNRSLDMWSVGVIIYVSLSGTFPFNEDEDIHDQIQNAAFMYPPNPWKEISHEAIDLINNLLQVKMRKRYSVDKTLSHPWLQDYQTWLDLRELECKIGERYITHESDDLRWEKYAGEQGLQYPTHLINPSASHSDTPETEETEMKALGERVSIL

[2] = system: MBD3; test: Western blot for MBD3 protein expression in V6.5 mouse ES cells after 4 days treatment; assay type: cell-based; conditions: 2i/LIF plus agent at 5 micromolar
Description: FIGS. 1O1A-101B are Western blot analyses showing expression of MBD3 (FIG. 101B) and of HSP90 (FIG. 101A) in v6.5 mouse ES cells after different treatments. V6.5 mouse ES cells were expanded for 4 days in the indicated conditions and subjected to Western blot analysis for MBD3 protein expression. Following are the abbreviations and concentrations of the indicated factors and agents. PBS=phosphate buffered saline; “LIF”=leukemia inhibitory factor, provided at a concentration of 20 nanograms/milliliter (ng/ml); KSR=knockout serum replacement; “2i/LIF”=small-molecule inhibitors CHIR99021 (CH, 3 M—Axon Medchem) and PD0325901 (PD, 1 M—TOCRIS), with 20 ng/ml LIF; “DMSO”=Dimethyl sulfoxide at a concentration of 0.1%; TGFRi (inhibitor of transforming growth factor receptor; SB431542 at 5 micromolar); PKC-i (inhibitor of protein kinase C; Go6983 at 5 micromolar).
V6.5 mouse ES cells were expanded for 4 days in various conditions in order to identify combination of factors which result in reduced MBD3 protein levels.

[3] = target: PKCγ (Homo sapiens, UniProt P05129); conditions: read-out: IC50 for PKCy; cited from earlier work
[4] = target: T2, PKCζ (Homo sapiens, UniProt Q05513); conditions: read-out: IC50 for PKC; cited from earlier work
T2 sequence (Q05513 1-592): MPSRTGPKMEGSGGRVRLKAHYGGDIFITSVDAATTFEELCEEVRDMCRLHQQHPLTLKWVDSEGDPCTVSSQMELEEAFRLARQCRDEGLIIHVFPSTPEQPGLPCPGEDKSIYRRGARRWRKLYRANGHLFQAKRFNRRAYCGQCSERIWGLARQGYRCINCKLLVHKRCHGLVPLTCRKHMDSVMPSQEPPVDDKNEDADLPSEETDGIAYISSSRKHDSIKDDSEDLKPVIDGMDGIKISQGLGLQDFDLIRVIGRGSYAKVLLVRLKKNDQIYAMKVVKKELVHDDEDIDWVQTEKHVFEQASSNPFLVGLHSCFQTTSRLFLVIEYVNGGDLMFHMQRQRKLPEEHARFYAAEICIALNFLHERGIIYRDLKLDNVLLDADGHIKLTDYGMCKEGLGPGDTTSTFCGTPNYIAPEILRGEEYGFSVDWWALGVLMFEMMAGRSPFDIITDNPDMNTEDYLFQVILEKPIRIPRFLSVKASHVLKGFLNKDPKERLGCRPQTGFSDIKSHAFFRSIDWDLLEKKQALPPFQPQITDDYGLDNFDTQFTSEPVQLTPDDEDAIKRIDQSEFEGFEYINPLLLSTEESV

[5] = target: PKCβ (Homo sapiens, UniProt P05771); conditions: read-out: IC50 for PKC0; cited from earlier work
PKCβ, sequence (P05771 whole entry, species assumed): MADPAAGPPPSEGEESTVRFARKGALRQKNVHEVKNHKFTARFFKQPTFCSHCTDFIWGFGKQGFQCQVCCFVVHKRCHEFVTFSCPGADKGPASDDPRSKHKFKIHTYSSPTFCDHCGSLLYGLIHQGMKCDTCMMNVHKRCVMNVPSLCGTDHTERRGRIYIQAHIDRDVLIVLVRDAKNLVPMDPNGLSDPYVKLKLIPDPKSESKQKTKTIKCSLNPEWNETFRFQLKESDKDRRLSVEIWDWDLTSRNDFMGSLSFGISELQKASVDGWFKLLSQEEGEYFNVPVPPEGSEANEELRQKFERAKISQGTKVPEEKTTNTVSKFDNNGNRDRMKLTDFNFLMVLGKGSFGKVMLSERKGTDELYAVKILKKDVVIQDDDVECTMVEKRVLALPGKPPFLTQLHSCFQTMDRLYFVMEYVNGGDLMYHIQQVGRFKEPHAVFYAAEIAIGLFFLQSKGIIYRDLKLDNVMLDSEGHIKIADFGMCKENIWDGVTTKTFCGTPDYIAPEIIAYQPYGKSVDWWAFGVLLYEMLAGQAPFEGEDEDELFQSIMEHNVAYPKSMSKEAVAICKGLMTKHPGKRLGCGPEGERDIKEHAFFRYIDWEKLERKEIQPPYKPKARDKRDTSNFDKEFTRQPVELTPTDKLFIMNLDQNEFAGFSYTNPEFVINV

[6] = target: PKCδ (Homo sapiens, UniProt Q05655); conditions: read-out: IC50 for PKC6; cited from earlier work
PKCδ, sequence (Q05655 whole entry): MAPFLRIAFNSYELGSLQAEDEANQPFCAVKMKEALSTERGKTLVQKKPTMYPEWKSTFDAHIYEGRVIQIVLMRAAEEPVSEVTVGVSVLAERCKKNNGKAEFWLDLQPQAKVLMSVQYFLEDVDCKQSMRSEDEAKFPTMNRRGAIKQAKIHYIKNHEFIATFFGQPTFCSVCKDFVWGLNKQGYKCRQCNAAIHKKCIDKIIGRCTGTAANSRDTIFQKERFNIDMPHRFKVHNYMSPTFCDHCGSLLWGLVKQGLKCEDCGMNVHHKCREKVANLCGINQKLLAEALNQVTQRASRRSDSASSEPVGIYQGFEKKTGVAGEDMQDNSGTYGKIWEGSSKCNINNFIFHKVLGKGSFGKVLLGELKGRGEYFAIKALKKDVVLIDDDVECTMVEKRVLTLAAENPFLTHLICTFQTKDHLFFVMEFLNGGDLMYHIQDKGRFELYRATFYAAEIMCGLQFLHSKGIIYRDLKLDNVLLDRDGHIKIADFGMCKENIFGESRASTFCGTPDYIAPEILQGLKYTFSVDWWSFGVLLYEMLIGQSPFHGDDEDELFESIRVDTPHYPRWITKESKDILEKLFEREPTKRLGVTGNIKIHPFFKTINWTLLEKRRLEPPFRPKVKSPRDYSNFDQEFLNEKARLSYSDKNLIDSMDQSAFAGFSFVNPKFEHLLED

[7] = target: PKCα (Homo sapiens, UniProt P17252); conditions: read-out: IC50 for PKCu; cited from earlier work
[8] = system: primed hESCs and hiPSCs; test: Single-cell cloning efficiency, primed cells; assay type: cell-based, human; conditions: in the presence of ROCK inhibitor
Description: (§1) FIGS. 74A-74D depict enhanced growth rate and single cell cloning efficiency of human naive pluripotent stem cells. FIG. 74A—Population doubling time of various mouse and human pluripotent stem cell lines. After plating each cell lines in replicates, cells were harvested at days 2,4 and 6 and there growth was normalized by counting cell number at each stage and calculating growth rate relative to the number of cells harvested and counted at day 2 (rather than number of plated cells to account for variability in survival after plating). Error bars represent s.d., and P values represent t-test of average from primed hESC/hiPSC lines to average of naive hESC/hiPSC lines. FIG. 74B—Single-cell cloning efficiency of different pluripotent stem cell lines as determined by the number of wells containing NANOG+ colonies 6 days after plating (with or without ROCK inhibitor as indicated in the figure). * indicates student's t-test P value <0.01 between the average of the compared groups. Error bars indicate s.d. […] Single-cell cloning efficiency of different pluripotent stem cell lines as determined by the number of wells containing Nanog+ colonies 6 days after plating (without using ROCK inhibitor as indicated in the figure). * indicates student's t-test P value <0.01 between the average of the compared groups. […]

[9] = system: naive hPSCs; test: Single-cell cloning efficiency, naive cells; assay type: cell-based, human; conditions: in the presence of ROCK inhibitor
Description: as §1

[10] = system: naive cells; test: Pluripotency (Oct4-GFP) after passaging with DNA methylation or EED inhibitors; assay type: cell-based, human and mouse; conditions: Oct4-GFP reporter
[11] = system: naive hESCs/hiPSCs; test: Substitution of p38 inhibitor in WIS-NHSM, OCT4-GFP expression; assay type: cell-based, human; conditions: used instead of SB203580 in WIS-NHSM
[12] = target: T3, Mbd3 binding to Chd4 (Homo sapiens, UniProt O95983); test: Co-immunoprecipitation of Flag-Mbd3 interacting proteins in 293T cells; assay type: cell-based; conditions: Flag-Mbd3 IP
T3 construct: expressed in transfected cells; host or cells: 293T cells
T3 sequence (O95983 1-291): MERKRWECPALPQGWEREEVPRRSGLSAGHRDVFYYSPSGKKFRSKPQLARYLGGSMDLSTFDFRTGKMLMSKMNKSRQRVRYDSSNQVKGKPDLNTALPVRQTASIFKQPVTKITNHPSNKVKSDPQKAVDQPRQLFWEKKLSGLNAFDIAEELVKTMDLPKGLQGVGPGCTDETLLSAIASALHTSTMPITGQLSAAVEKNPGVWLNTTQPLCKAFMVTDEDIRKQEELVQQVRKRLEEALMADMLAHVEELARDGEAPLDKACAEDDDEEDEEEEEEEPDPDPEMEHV
Description: 293T cells were transfected with both with Flag-Mbd3 (WT) and P66a-CC (SEQ ID NO:71; GenBank Accession NO. NM_017660.3) or a control vector (mCherry), Mbd3 15 interacting proteins were pulled down by immunoprecipitation (IP) using Flag-magnetic beads.
The present inventors overexpressed MBD3-WT (SEQ ID NO: 112) and the HA-tagged p66u-CC in 293T cells, and further show in a co-immunoprecipitation for anti-Mbd3 pulldown, that the presence of p66u inhibits MBD3 binding and recruitment to CHD4 (FIG. 93).

Molecule: COc1ccc2c(c1)c(C1=C(c3c[nH]c4ccccc34)C(=O)NC1=O)cn2CCCN(C)C [Go6983]
- IC50 [1]: 20000 nM
- MBD3 protein levels [2]: significant depletion
- MBD3 protein levels ([2]; listed as PKC inhibitor): significant reduction
- IC50 [3]: 6 nM
- IC50 [4]: 60 nM
- IC50 [5]: 7 nM
- IC50 [6]: 10 nM
- IC50 [7]: 7 nM

Molecule: C[C@@H](N)[C@H]1CC[C@H](C(=O)Nc2ccncc2)CC1 [ROCK inhibitor, Y-27632]
- single cell cloning efficiency [8]: up to 22%
- single cell cloning efficiency [9]: up to 88%

Molecule: Nc1nccc2c1ncn2C1C=C(CO)C(O)C1O (stereo not shown) [DzNEP]
- pluripotency after passaging in presence of inhibitor [10]: retain their pluripotency

Molecule: Oc1ccc(-c2nc(-c3ccncc3)c(-c3ccc(F)cc3)[nH]2)cc1 [SB202190]
- change in OCT4-GFP expression [11]: without any change

Molecule: Nc1ncn([C@H]2C[C@H](O)[C@@H](CO)O2)c(=O)n1 [Condition 5d-AZA]
- pluripotency after passaging in presence of inhibitor [10]: retain their pluripotency

Molecule: Cc1ccc(-n2nc(C(C)(C)C)cc2NC(=O)Nc2ccc(OCCN3CCOCC3)c3ccccc23)cc1 [BIRB796]
- change in OCT4-GFP expression [11]: without any change

Molecule: P66a-CC: P66 alpha coiled-coil domain, SEQ ID NO:114, expressed by transfection (PEERERMIKQLKEELRLEEAKLVLLKKLRQSQIQKEATAQK; (1)..(41) P66 alpha coiled-coil domain; listed as Homo sapiens) [Condition P66a-CC]
- Chd4 interaction with Mbd3 [12]: specific loss of Chd4 interaction with Mbd3

Molecule: NC(=O)c1ccc(-c2nc(-c3ccc4c(c3)OCO4)c(-c3ccccn3)[nH]2)cc1 [SB431542]
- MBD3 protein levels [2]: did not affect
